In patent publication US10258073B2, “Functional nutritional blend for thermo-metabolic performance” (priority 2016, dated 2019):

Tested on: Mouse 3T3-L1 pre adipocytes
Assay: Cell viability by Sulforhodamine B (SRB) assay
Format: cell-based
Details: 72 h
Procedure: Cell culture: Mouse immortalised 3T3-L1 pre adipocytes were cultured in 5% CO2 at 37° C. in growth media consisting of Dulbecco's Modified Eagles Medium (DMEM) containing 10% heat-inactivated fetal calf serum with 40 μg/mL of gentamycin 5×10^3 cells were seeded per well in a 96 well plate and allowed to grow as a confluent monolayer.
Mouse 3T3-L1 pre adipocytes were cultured in DMEM containing 10% heat-inactivated foetal calf serum. 5000 cells were seeded in 96 well culture plates and allowed to form adhere and form a monolayer. Test compounds were added at different concentrations and incubated for 72 hours at 37° C. and 5% CO2. Cells were fixed using 10% trichloroacetic acid (TCA) solution at 4° C. for one hour. SRB solution (0.4%) was added to the wells and incubated for 30 minutes at room temperature. Excess dye was washed 5 times with 1% acetic acid. 100 μl of 10 mM trizma base was added to the wells to solubilize the SRB. Absorbance was read using a microplate reader at a wave length of 492 nm. The absorbance of cells with growth media was considered as 100% viable and percentage viability was calculated based on this reading.

O=C(/C=C/C=C/c1ccc2c(c1)OCO2)N1CCCCC1 [Piperine]
Non-toxic concentration: 25 µg/mL
